Toxic doses and inconclusive results are not listed. Rule for the calls: active = survival T/C of 150% or more; inactive = T/C below 125% in these data.
Test system: CD2F1 mice, L1210 leukemia ip, survival T/C
Assay: NCI In Vivo Anticancer Drug Screen. Data for tumor model L1210 Leukemia (intraperitoneal) in CD2F1 (CDF1) mice
Conditions: higher = longer survival
Method in brief: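 Transplantable tumor in mice; compound-treated vs vehicle-treated groups. Read-out = treated/control ratio of the measured endpoint.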

[1] = endpoint: mean survival time, dose: 100.0 mg/kg/injection, schedule: Q04DX003 (ip), vehicle: saline
[2] = endpoint: mean survival time, dose: 200.0 mg/kg/injection, schedule: Q04DX003 (ip), vehicle: saline
[3] = endpoint: mean survival time, dose: 100.0 mg/kg/injection, schedule: Q04DX003 (ip), vehicle: saline with Tween-80
[4] = endpoint: mean survival time, dose: 200.0 mg/kg/injection, schedule: Q04DX003 (ip), vehicle: saline with Tween-80
[5] = endpoint: mean survival time, dose: 400.0 mg/kg/injection, schedule: Q04DX003 (ip), vehicle: saline with Tween-80
[6] = endpoint: mean survival time, dose: 100.0 mg/kg/injection, schedule: Q01DX001 (ip), vehicle: saline with Tween-80
[7] = endpoint: mean survival time, dose: 200.0 mg/kg/injection, schedule: Q01DX001 (ip), vehicle: saline with Tween-80
[8] = endpoint: mean survival time, dose: 400.0 mg/kg/injection, schedule: Q01DX001 (ip), vehicle: saline with Tween-80
[9] = endpoint: mean survival time, dose: 100.0 mg/kg/injection, schedule: Q01DX009 (ip), vehicle: saline with Tween-80
[10] = endpoint: mean survival time, dose: 200.0 mg/kg/injection, schedule: Q01DX009 (ip), vehicle: saline with Tween-80
[11] = endpoint: mean survival time, dose: 400.0 mg/kg/injection, schedule: Q01DX009 (ip), vehicle: saline with Tween-80

Measured: T/C

CCCc1cc(=O)n(CCCc2ccccc2)c(=O)n1CCCc1ccccc1
inactive: endpoint: mean survival time, dose: 100.0 mg/kg/injection, schedule: Q01DX001 (ip), vehicle: Klucel (hydroxypropylcellulose) (HPC) 103 % of control | endpoint: mean survival time, dose: 200.0 mg/kg/injection, schedule: Q01DX001 (ip), vehicle: Klucel (hydroxypropylcellulose) (HPC) 97 % of control | endpoint: mean survival time, dose: 400.0 mg/kg/injection, schedule: Q01DX001 (ip), vehicle: Klucel (hydroxypropylcellulose) (HPC) 90 % of control

CCCC[N-]CC(O)C[NH-].O=C(O)CC(=O)O.[Pt+2] (configuration not stated)
inactive: endpoint: median survival time, dose: 10.0 mg/kg/injection, schedule: Q04DX003 (ip), vehicle: water 105 % of control | endpoint: median survival time, dose: 20.0 mg/kg/injection, schedule: Q04DX003 (ip), vehicle: water 103 % of control | endpoint: median survival time, dose: 40.0 mg/kg/injection, schedule: Q04DX003 (ip), vehicle: water 105 % of control | endpoint: median survival time, dose: 50.5 mg/kg/injection, schedule: Q04DX003 (ip), vehicle: water 103 % of control | endpoint: median survival time, dose: 80.0 mg/kg/injection, schedule: Q04DX003 (ip), vehicle: water 97 % of control | endpoint: median survival time, dose: 101.0 mg/kg/injection, schedule: Q04DX003 (ip), vehicle: water 103 % of control | endpoint: median survival time, dose: 202.0 mg/kg/injection, schedule: Q04DX003 (ip), vehicle: water 107 % of control

CCCCCC(C)O[Si](C)OCC (configuration not stated)
inactive: [1] 96 % of control | [2] 106 % of control | endpoint: mean survival time, dose: 400.0 mg/kg/injection, schedule: Q04DX003 (ip), vehicle: saline 108 % of control

O=C(CCN1CCCCC1)c1ccc(C(F)(F)F)cc1
inactive: endpoint: mean survival time, dose: 3.13 mg/kg/injection, schedule: Q01DX009 (ip), vehicle: water 90 % of control | endpoint: mean survival time, dose: 6.25 mg/kg/injection, schedule: Q01DX009 (ip), vehicle: water 90 % of control

CC12CCC(=O)C=C1CCC1C2C(=O)CC2(C)C1CCC2(O)C(=O)Cn1ccc(=O)[nH]c1=O (configuration not stated)
inactive: endpoint: mean survival time, dose: 12.5 mg/kg/injection, schedule: Q04DX003 (ip), vehicle: Klucel (hydroxypropylcellulose) (HPC) 91 % of control | endpoint: mean survival time, dose: 25.0 mg/kg/injection, schedule: Q04DX003 (ip), vehicle: Klucel (hydroxypropylcellulose) (HPC) 101 % of control | endpoint: mean survival time, dose: 50.0 mg/kg/injection, schedule: Q04DX003 (ip), vehicle: Klucel (hydroxypropylcellulose) (HPC) 98 % of control | endpoint: mean survival time, dose: 100.0 mg/kg/injection, schedule: Q04DX003 (ip), vehicle: Klucel (hydroxypropylcellulose) (HPC) 96 % of control | endpoint: mean survival time, dose: 200.0 mg/kg/injection, schedule: Q04DX003 (ip), vehicle: Klucel (hydroxypropylcellulose) (HPC) 98 % of control

Cc1ccc(S(=O)(=O)N/N=C(\C(=O)O)c2ccccc2)cc1
inactive: endpoint: mean survival time, dose: 12.5 mg/kg/injection, schedule: Q01DX009 (ip), vehicle: Klucel (hydroxypropylcellulose) (HPC) 95 % of control | endpoint: mean survival time, dose: 25.0 mg/kg/injection, schedule: Q01DX009 (ip), vehicle: Klucel (hydroxypropylcellulose) (HPC) 96 % of control | endpoint: mean survival time, dose: 50.0 mg/kg/injection, schedule: Q01DX009 (ip), vehicle: Klucel (hydroxypropylcellulose) (HPC) 96 % of control | endpoint: mean survival time, dose: 100.0 mg/kg/injection, schedule: Q01DX009 (ip), vehicle: Klucel (hydroxypropylcellulose) (HPC) 95 % of control | endpoint: mean survival time, dose: 200.0 mg/kg/injection, schedule: Q01DX009 (ip), vehicle: Klucel (hydroxypropylcellulose) (HPC) 93 % of control

OC1c2ccccc2-c2ccc(Cl)cc21 (configuration not stated)
inactive: [3] 94 % of control | [4] 86 % of control | [5] 96 % of control

Cn1c(C(=O)c2ccncc2)cc2ccccc21
inactive: [6] 103 % of control | endpoint: mean survival time, dose: 100.0 mg/kg/injection, schedule: Q04DX002 (ip), vehicle: saline with Tween-80 100 % of control | [7] 103 % of control | endpoint: mean survival time, dose: 200.0 mg/kg/injection, schedule: Q04DX002 (ip), vehicle: saline with Tween-80 100 % of control | [8] 103 % of control | endpoint: mean survival time, dose: 400.0 mg/kg/injection, schedule: Q04DX002 (ip), vehicle: saline with Tween-80 95 % of control

COC(=O)c1ccc(I)c([N+](=O)[O-])c1
inactive: [6] 98 % of control | [9] 102 % of control | [7] 104 % of control | [10] 102 % of control | [8] 97 % of control | [11] 103 % of control

CCOP(=O)(OCC)C1=C(P(=O)(OCC)OCC)C(F)(F)C1(F)F
inactive: endpoint: mean survival time, dose: 9.5 mg/kg/injection, schedule: Q01DX001 (ip), vehicle: other 97 % of control | endpoint: mean survival time, dose: 19.0 mg/kg/injection, schedule: Q01DX001 (ip), vehicle: other 97 % of control | endpoint: mean survival time, dose: 38.0 mg/kg/injection, schedule: Q01DX001 (ip), vehicle: other 91 % of control

CCOC(=O)N1CCc2nc3ccccc3cc21
inactive: endpoint: mean survival time, dose: 50.0 mg/kg/injection, schedule: Q01DX001 (ip), vehicle: other 106 % of control | endpoint: mean survival time, dose: 100.0 mg/kg/injection, schedule: Q01DX001 (ip), vehicle: other 109 % of control | endpoint: mean survival time, dose: 200.0 mg/kg/injection, schedule: Q01DX001 (ip), vehicle: other 97 % of control

N#CC1=C(NC2OCC(O)C(O)C2O)CCC1 (configuration not stated)
inactive: endpoint: mean survival time, dose: 12.5 mg/kg/injection, schedule: Q01DX005 (ip), vehicle: other 108 % of control | endpoint: mean survival time, dose: 25.0 mg/kg/injection, schedule: Q01DX005 (ip), vehicle: other 95 % of control | endpoint: mean survival time, dose: 50.0 mg/kg/injection, schedule: Q01DX005 (ip), vehicle: other 98 % of control | endpoint: mean survival time, dose: 100.0 mg/kg/injection, schedule: Q01DX005 (ip), vehicle: other 98 % of control | endpoint: mean survival time, dose: 200.0 mg/kg/injection, schedule: Q01DX005 (ip), vehicle: other 89 % of control

CC(=O)C(C(C)=O)C(c1ccccn1)C(C(C)=O)C(C)=O
inactive: [3] 106 % of control | [4] 98 % of control | [5] 93 % of control

O=C1C=CC(=O)O1 (tested in a mixture with another compound)
inactive: endpoint: mean survival time, dose: 1.56 mg/kg/injection, schedule: Q01DX001 (ip), vehicle: other 109 % of control | endpoint: mean survival time, dose: 1.56 mg/kg/injection, schedule: Q04DX003 (ip), vehicle: other 95 % of control | endpoint: mean survival time, dose: 3.12 mg/kg/injection, schedule: Q01DX001 (ip), vehicle: other 105 % of control | endpoint: mean survival time, dose: 3.12 mg/kg/injection, schedule: Q04DX003 (ip), vehicle: other 97 % of control | endpoint: mean survival time, dose: 6.25 mg/kg/injection, schedule: Q04DX003 (ip), vehicle: other 97 % of control | endpoint: mean survival time, dose: 50.0 mg/kg/injection, schedule: Q01DX001 (ip), vehicle: saline 115 % of control | endpoint: mean survival time, dose: 200.0 mg/kg/injection, schedule: Q01DX001 (ip), vehicle: saline 117 % of control | endpoint: mean survival time, dose: 400.0 mg/kg/injection, schedule: Q01DX001 (ip), vehicle: saline 117 % of control | endpoint: mean survival time, dose: 1000.0 mg/kg/injection, schedule: Q01DX001 (ip), vehicle: saline 121 % of control

CCOC(=O)C(C)S(=O)(=O)O (configuration not stated)
inactive: endpoint: mean survival time, dose: 100.0 mg/kg/injection, schedule: Q04DX002 (ip), vehicle: saline 91 % of control | endpoint: mean survival time, dose: 200.0 mg/kg/injection, schedule: Q04DX002 (ip), vehicle: saline 100 % of control | endpoint: mean survival time, dose: 400.0 mg/kg/injection, schedule: Q04DX002 (ip), vehicle: saline 100 % of control

CC(=O)Nc1ccccc1[N+](=O)[O-]
inactive: [6] 103 % of control | [7] 101 % of control | [8] 103 % of control

S=C1SCCN1Cc1ccccc1
inactive: [9] 104 % of control | [3] 106 % of control | [10] 101 % of control | [4] 101 % of control | [11] 104 % of control | [5] 101 % of control

COCCCN1CCN(c2ccccc2OC)CC1
inactive: endpoint: mean survival time, dose: 50.0 mg/kg/injection, schedule: Q01DX009 (ip), vehicle: saline 93 % of control | endpoint: mean survival time, dose: 100.0 mg/kg/injection, schedule: Q01DX009 (ip), vehicle: saline 88 % of control | [1] 98 % of control | [2] 104 % of control

CNC(=O)NC1C(O)C(OC)OC2COC(c3ccccc3)OC21 (configuration not stated)
inactive: [3] 97 % of control | [4] 97 % of control | [5] 95 % of control
